Experimental data from US20260022127A1, “HEXACYCLIC TOPOISOMERASE INHIBITORS HAVING CYTOTOXIC ACTIVITY ON CANCER CELLS” (priority 2022, published 2026).
pIC50: −log10 of the molar value. Where two headings read alike, the source gives them in different places.

Test system: SKBR-3 cell line (human breast cancer)
Assay: 2D-cytotoxicity assay of free payloads (Cell titer glow, 72 hours)
Format: cell-based
Protocol: Protocol: Day 1:5,000 cells/well were plated and incubated at 37° C. overnight, unless otherwise noted.
Day 2: Payload/vehicle control dilutions were made in respective media and added to cells. Volume added: 50 μL to each well. Starting treatment concentration was 0.1 mM for free payloads/10% for vehicle control and then diluted 10-fold down for a total of 11 treatment dilutions. Each concentration was analyzed in triplicates. Media-only wells was used as a control to calculate percent viability.
Day 5: Cell titer glow reagent (volume: 50 μL) was added to each well, the plate was shaken for 5 mins and the luminescence was recorded.
Drug Treatment Time: 72 hours.
Data Analysis: Percent viability was calculated by dividing the luminescence signal obtained for each treated well by the untreated well (media-only control) and multiplying by 100. Data was next transformed using X=Log (x) and then analyzed with nonlinear regression (curve fit), Dose Response inhibition−log (inhibitor) vs response (3 parameters) using PRISM software to determine the IC50 value.

[1] = Homo sapiens, SK-BR-3, SKBR-3, 2000 cells/well, read-out: IC50
[2] = Homo sapiens, SK-BR-3, SKBR-3, 5,000 cells/well, read-out: IC50
[3] = Homo sapiens, SK-BR-3, 72 h, SKBR-3, 5,000 cells/well
[4] = SKBR-3, 5,000 cells/well, read-out: IC50

## CC[C@@]1(O)C(=O)OCc2c1cc1n(c2=O)Cc2c-1nc1cc(F)c(C)c3c1c2[C@H](OCNC(=O)CN)CC3 (single isomer, unassigned) [E-35a*]
[1]
  pIC50: 7.55

## CC[C@@]1(O)C(=O)OCc2c1cc1n(c2=O)C(C)(C)c2c-1nc1cc(F)c(C)c3c1c2CCC3 [Compound E-25]
[2]
  pIC50: 5.52

## CC[C@@]1(O)C(=O)OCc2c1cc1n(c2=O)Cc2c-1nc1cc(F)c(C)c3c1c2[C@@H](OCNC(=O)CN)CC3 (single isomer, unassigned) [E-35b*]
[1]
  pIC50: 7.23

## C=CCC1(CC=C)c2c(nc3cc(F)c(C)c4c3c2CCC4)-c2cc3c(c(=O)n21)COC(=O)[C@]3(O)CC [Compound E-23]
[2]
  pIC50: 5.45

## C=CCC1c2c(nc3cc(F)c(C)c4c3c2CCC4)-c2cc3c(c(=O)n21)COC(=O)[C@]3(O)CC (some centres unmarked) [Compound E-21]
[2]
  pIC50: 6.38

## CC[C@@]1(O)C(=O)OCc2c1cc1n(c2=O)C2(CC=CC2)c2c-1nc1cc(F)c(C)c3c1c2CCC3 [Compound E-24]
[2]
  pIC50: 6.29

## CC[C@@]1(O)C(=O)OCc2c1cc1n(c2=O)Cc2c-1nc1cc(F)c(C)c3c1c2C(O)CC3 (some centres unmarked) [Compound E-1]
[2]
  pIC50: 8.48

## CC[C@@]1(O)C(=O)OCc2c1cc1n(c2=O)Cc2c-1nc1c(Cl)c(F)c(C)c3c1c2CCC3 [Compound E-38]
[2]
  pIC50: 7.46

## CC[C@@]1(O)C(=O)OCc2c1cc1n(c2=O)C(O)c2c-1nc1cc(F)c(C)c3c1c2CCC3 (some centres unmarked) [Compound E-19]
[3]
  pIC50: 7.12

## CC[C@@]1(OC(=O)CCCN)C(=O)OCc2c1cc1n(c2=O)Cc2c-1nc1cc(F)c(C)c3c1c2CCC3 [Compound E-43]
[1]
  pIC50: 7.49

## C#CCOC1c2c(nc3cc(F)c(C)c4c3c2CCC4)-c2cc3c(c(=O)n21)COC(=O)[C@]3(O)CC (some centres unmarked) [Compound E-22]
[2]
  pIC50: 7.12

## CC[C@@]1(O)C(=O)OCc2c1cc1n(c2=O)Cc2c-1nc1cc(F)c(C)c3c1c2C(=NO)CC3 [Compound E-29]
[3]
  pIC50: 7.81

## CC[C@@]1(O)C(=O)OCc2c1cc1n(c2=O)Cc2c-1nc1cc(F)c(C)c3c1c2C(OCNC(=O)CN)CC3 (some centres unmarked) [Compound E-35]
[3]
  pIC50: 8.11

## CC[C@@]1(O)C(=O)OCc2c1cc1n(c2=O)Cc2c-1nc1cc(F)c(C)c3c1c2[C@@H](NC(=O)CO)CC3 [Exatecan Glycolamide, reference compound]
[4]
  pIC50: 8.30

## CCC1(O)C(=O)OCc2c1cc1n(c2=O)Cc2c-1nc1cc(F)c(C)c3c1c2CCC3 (centres unmarked) [Compound E-10]
[3]
  pIC50: 8.57

## CC[C@@]1(O)C(=O)OCc2c1cc1n(c2=O)Cc2c-1nc1cc(F)c(C)c3c1c2CCC3 [Compound E-18]
[3]
  pIC50: 8.96

## Exatecan Mesylate [reference compound]
[4]
  pIC50: 8.61

## CC[C@@]1(O)C(=O)OCc2c1cc1n(c2=O)Cc2c-1nc1cc(F)c(C)c3c1c2C(OCNC(=O)CNC)CC3 (some centres unmarked) [Compound E-42]
Homo sapiens, SK-BR-3, 72 h, SKBR-3, 1000 cells/well
  pIC50: 7.92

## CC[C@@]1(O)C(=O)OCc2c1cc1n(c2=O)Cc2c-1nc1cc(F)c(C)c3c1c2C(=O)CC3 [Compound E-2]
Homo sapiens, SK-BR-3, 72 h, SKBR-3, 5,000 cells/well, payload in ACN:Water
  pIC50: 7.56
Homo sapiens, SK-BR-3, 72 h, SKBR-3, 5,000 cells/well, payload in DMSO
  pIC50: 7.14
